Structures can show the parent of a compound that is named as a salt.

We go through 3 molecules from US20080021015A1, “Use as medicine of a compound restoring active principles in vivo” (DOSPHARMA, priority 2000, published 2008).

The subject of data set [1] is hamster cheek pouch.
The test system of data set [2] is rats treated with streptozotocin. The experiment in a line: Antidiabetic activity in rats made diabetic with streptozotocin. The conditions noted are these: streptozotocin (50 mg/kg, IP) rats; for hyperglycaemia after treatment: after administration of 30 mg/kg; for hyperglycaemia before treatment: starting value, 30 mg/kg group. In kind it is in vivo, rat. As to the method: (§1) The antidiabetic activity was studied, from the pharmacological point of view, on two models of rats made diabetic.
The first model consisted in treating the rats with streptozotocin (50 mg/kg, IP), this being a compound which induces an increase in glycaemia, which increases from 5.5 mM to 12-14 mM in 21 days.

Data set [3] has as its system rats given fructose at 10% in the drinking water. The note with it: fructose 10% in drinking water, equivalent dose of metformin base. As to the method: as §1
The second study is carried out with the administration of fructose at 10% in the drinking water of the rats.

For data set [4], the system named is primary hepatocytes. The experiment in a line: In vitro toxicity assay on primary hepatocytes.
Method: A method for culturing primary hepatocytes over a period of 96 hours is used (see Biochemical Pharmacology, vol. 50, 1995, pp. 775-780). The hepatocytes are isolated in situ by collagen profusion. They are then placed in a Williams medium supplemented with foetal calf serum, with cortisol and with glutamine, in a proportion of 1 million cells per well. Increasing and toxic concentrations of A and C, and of A′ ? […] C′ are then added to each well. Samples are taken up after 6 h, 12 h, 24 h, 48 h and 96 h and the viability of the cells is determined with a methylene blue test, by albumin expression, by hepatocyte apoptosis and by measuring cytochrome P450 activity.
For data set [5] the following is noted: rat, in vivo, po, 50 mg/kg.

As to “arginine hemisuccinimide-metformin hemisuccinate”, the “effects on the microcirculation” value in data set [1] was “reproduces at least the effects of the two active principles on the microcirculation”. Besides, in data set [2], the hyperglycaemia after treatment stood at 7.56 mM and the hyperglycaemia before treatment was 12.66 mM. In addition, the “antidiabetic activity compared with metformin alone” value in data set [3] is “significantly more active than the metformin alone”.

In data set [2], `CN(C)C(=N)NC(=N)N` [metformin, N,N-dimethylimidodicarbonimidic diamide] yielded a hyperglycaemia after treatment of 9.85 mM and a hyperglycaemia before treatment of 12.11 mM. Moreover, the toxic dose in data set [4] is 10^−2 M.

Consider `CN(C)C(=N)N=C(N)N` [metformin hydrochloride], for which, in data set [5], the concentration peak was found to be 3900 ng/mL and the “time of concentration peak” value is not above 90 min.
